These results are taken from patent US8389468B2, “Approach to the treatment of compartment syndrome” (Lantmannen AS-Faktor AB, priority 2006, dated 2013).

In assay [1] the test system is implanted tumours. Put plainly: Interstitial fluid pressure (IFP) in implanted tumours. The format is in vivo, rodents. As to the method: Tumours, malignant as well as benign, have been implanted subcutaneously and intramuscularly in rodents. Every second animal, having tumours with a diameter ranging from 10 mm to 15 mm, was treated with AF proteins or AF-16, systemically with the aid of subcutaneously implanted Alzet osmotic minipumps, by injections of AF-16 at or into the tumour. In another experiment, the AF-16 peptide was delivered from an implanted Alzet 2001 pump directly onto and/or into the tumour with a fine silicone tube. Additional rats had the AF-protein induced by their feed ort by having AF in egg yolk. For comparison, an equal number of rats received the same treatment but with the vehicle. The interstitial fluid pressure (IFP) in the tumour as well as at its adjacent regions was determined with the aid of a Samba glass fibre pressure sensor (diameter 0.4 mm), with and without a protecting tubing, as well as with equipment enabling determination of the interstitial fluid pressure by the “wick” technique. […] The IFP in the adjacent connective tissue was ranging from 0 to 4 mm Hg, but could occasionally be negative. Tumours in the range of 10-15 mm, and treated with AF-16 as described above, got a reduction of the IFP, which turned reduced to usually 12 mm Hg or less.

Assay [2] deals with HSV-1 infected rats. Put plainly: Survival of rats infected with HSV-1. Particulars: 10 pg or 25 pg AF-16 intranasally twice daily. The class given is in vivo, rat. The method, then:
FIG. 3: Survival frequency of rats infected with HSV-1 by the administration of a virus solution in the right nostril on day 0. Half of the rats (n=15) were treated twice daily with 1 μg AF-16 (upper line), a peptide composed of the amino acids VCHSKTRSNPENNVGL (SEQ ID NO: 1), twice daily intranasally, while the other half received just the vehicle after the HSV-1 infection (lower line). Of those treated with just the vehicle only 10% survived day 14, contrasting to the 60% of those treated with AF-16.
Therefore, rats were infected by instillation in their right nostril of 25 μL of a solution of the herpes simplex virus type 1 (HSV-1; strain 2762, batch 041028; 1.7×10^7 PFU/mL). Half of the animals received 10 min later 25 μL (1, 10 or 25 pg) of AF-16 in their right nostril, and had thereafter the same dose of AF-16 instilled every morning at 8 AM and every night at 6 PM until the experiment was terminated on day 14. The other half of the group of HSV-1 infected rats received 25 μL of the vehicle, PBS, at the same time schedule. The animals were several times daily closely watched for signs of behavioral dysfunction or general sickness. If so, the animals were sacrificed. The FIG. 3 is illustrating the survival rates for the animals, all being infected with HSV-1. […]

In assay [3] the test system is HSV-1. Put plainly: Immunohistochemical visualization of HSV-1 proteins in brain, rats. To be noted: 1 or 10 pg intranasally twice daily, day 6. The format is in vivo, rat. The method, then:
An alternative explanation to the improved survival of HSV-1 infected animals could be that the treatment with AF-16 prevented the virus from multiplying and/or spreading in the brain. […] Adult rats were infected by having a solution of the herpes simplex virus type 1 (HSV-1; strain 2762, batch 041028; 1.7×10^7 PFU/mL) instilled in their right nostril. Half of the animals received 10 min later 25 pi_ (1 or 10 pg) of AF-16 in their right nostril, and had thereafter the same dose of AF-16 instilled every morning at 8 AM and every night at 6 PM until the experiment was terminated on day 6. The other groups of the HSV-1 infected rats received at the same time intervals 25 pL of the vehicle, PBS. The animals were closely watched for signs of general sickness and of behavioral and motor dysfunction. The animals were sacrificed by an overdose of anesthetics on day 6, the skull opened and the brain removed. The brains, including the olfactory bulbs, were fixed by immersion in buffered formalin for at least a day. The brains were the dissected and divided in several specimens, which were processed for light microscopic investigation after paraffin embedding and sectioning. The sections were processed for routine staining and for immunohistochemical visualization of HSV-1 proteins (FIG. 4). […] Note the distinct staining of the nerve cells (black in FIG. 4a-c).

The subject of assay [4] is liver, spleen, kidney and thyroid. Put plainly: Mechanical injury of liver, spleen, kidney and thyroid. The class given is in vivo, rat. Particulars: compression and abrasion, vs vehicle. The text has this:
The liver, spleen, kidney and thyroid were similarly mechanically injured by compression and exposed to abrasion. […] Further the prevalence of ascites and related types of excessive extracellular fluid at elevated pressure was reduced. Thus AF-16 reduced the extent and severity of the CS in parenchymatous organs and tissues.

Assay [5] deals with flotillin-1 and aquaporin 1 immunoreactivities in the choroid plexus. Put plainly: Immunohistochemistry of flotillin-1 and aquaporin 1 in choroid plexus of HSV-1 infected rats. The class given is in vivo, rat. To be noted: hardly demonstrable with vehicle. The method, then:
Therefore, rats were infected by instillation in their right nostril of 25 μL of a solution of the herpes simplex virus type 1 (HSV-1; strain 2762, batch 041028; 1.7×10^7 PFU/mL). Half of the animals received 10 min later 25 μL (1, 10 or 25 pg) of AF-16 in their right nostril, and had thereafter the same dose of AF-16 instilled every morning at 8 AM and every night at 6 PM until the experiment was terminated on day 14. The other half of the group of HSV-1 infected rats received 25 μL of the vehicle, PBS, at the same time schedule. The animals were several times daily closely watched for signs of behavioral dysfunction or general sickness. If so, the animals were sacrificed. The FIG. 3 is illustrating the survival rates for the animals, all being infected with HSV-1. […] In contrast, the HSV-1 infected rats, receiving just the vehicle (n=15), died to a large extent and only 10% were still surviving at the end of the test period, day 14 (FIG. 3). All of the vehicle treated, infected rats developed signs of neurological dysfunctions. […] It ought to be stressed that the extent and severity of the damage were depending on the duration of the exposure and to the level of elevated ICP as well as to the survival time. […]

Assay [6] has as its system HSV-1. Description: PCR of HSV-1 DNA copies in brain tissue, rats. The format is in vivo, rat. To be noted: 1 or 10 pg intranasally twice daily. An excerpt: FIG. 5: Quantitative PCR performed on brain tissues from rats infected in their right nostril with HSV-1. The brain specimens were obtained between 5 to 14 days after virus inoculation in the right nostril.
The improved survival of the HSV-1 infected rodents, as illustrated in example #2, could tentatively be due to that AF-16 blocked or at least reduced the proliferation of HSV1 virus in the infected brain. Therefore, adult rats were infected by having a solution of the herpes simplex virus type 1 (HSV-1; strain 2762, batch 041028; 1.7×10^7 PFU/mL) instilled in their right nostril. Half of the infected animals received 10 min later 25 pL (1 or 10 pg) of AF-16 in their right nostril, and had thereafter the same dose of AF-16 instilled every morning at 8 AM and every night at 6 PM until the experiment was terminated on day 6. The other groups of the HSV-1 infected rats received at the same time intervals 25 μL of the vehicle, PBS. The animals were closely watched for signs of general sickness and of behavioral and motor dysfunction. The animals were sacrificed by an overdose of anesthetics on day 6, the skull was then rapidly opened and the brain removed. […]

Entries after “also recorded” stand apart in the source; their conditions may differ.

Turning to VCHSKTRSNPENNVGL [AF-16], in assay [1] (in vivo), the “inflammatory reaction in tumour (light microscopy)” value was “reduced the intensity and extent of the inflammatory reaction”. Besides, the “interstitial fluid pressure (IFP) in the tumour” value in assay [1] (tumours 10-15 mm, vehicle in excess of 12) is not above 12 mm Hg. Besides, in assay [2], the “signs of neurological dysfunction” value is “none showed any signs of neurological dysfunction” and the “survival at day 14” value was “all the infected animals survived”. Further, the “prevalence and distribution of HSV-1 proteins in the brain vs vehicle” value in assay [3] is “no obvious difference with regard to the prevalence and distribution of HSV-1 proteins; also recorded: no difference in frequency or distribution of HSV-1 positive brain cells”. Moreover, the “oedema and swelling of injured organs” value in assay [4] is “reduce the oedema and swelling”. Further, in assay [5], the “aquaporin 1 immunoreactivity in the choroid plexus” value is listed as “readily demonstrable” and the “flotillin-1 immunoreactivity in the choroid plexus” value was “readily demonstrable”. The “HSV-1 DNA copies in brain tissue vs vehicle” value in assay [6] is “no significant difference with regard to prevalence and distribution of HSV-1 DNA copies; also recorded: does not significantly affect the HSV-1 production”.
